Reference: patent US10550130B2, “Benzo-thiazolo-imidazole compounds and uses thereof” (KING SAUD UNIVERSITY, priority 2015, dated 2020)

Assays:
[1] = test system: ALDH+ CD24low/CD44High breast cancer stem cells (from MDA-MB-468 cells); assay: Apoptosis in sorted breast cancer stem cells versus differentiated cells; format: cell-based; details: 10 μM, two days; ALDH+ CD24low/CD44High vs ALDH- CD24High/CD44low from MDA-MB-468
Procedure: MDA-MB-468 Cells harvested, washed and incubated in aldefluor assay buffer containing an ALDH substrate (BAAA (BODIPY®-aminoacetaldehyde). For negative control, half of the cells of each sample was removed to another FACS tube and incubated under identical condition with DEAB, a specific inhibitor of ALDH enzyme. Then the cells were stained with the following directly conjugated monoclonal antibodies anti-mouse CD44-APC-Cy7 (Biolegend), anti-mouse CD24-Pacific Blue (EXBIO Praha, a.s.). All analyses and cell sorting were performed on a FACSAria™ cell sorter (BD Biosciences). Debris and cell clusters were excluded during side-scatter and forward-scatter analyses.
ALDH^+ CD24^low/CD44^High breast cancer stem cells were sorted and cultured for 24 h. Cells were then treated with 10 μM of the compound KSA-101696 for two days. At the same time, ALDH^− CD24^High/CD44^low breast cancer differentiated cells were used as a negative control to evaluate the selective apoptotic activity of the compound against breast cancer stem cells compared with differentiated phenotype from the same bulk population of MDA-MB-468 cells.

SP cells of MCF-7 cells = assay: Side population (SP) cell fraction by flow cytometry; format: cell-based; details: Homo sapiens, MCF7, 24 h, normal culture conditions, read-out: IC50, SP cell inhibition
Description: It is known that one of the properties of stem/progenitor cells is their ability to survive under anchorage-independent conditions and generate mammospheres, which are composed of a small number of stem cells. Given that CSCs generally make up for a small minority of the cells within cancer cell populations, the dye DyeCycle Violet was used to isolate SP cells (side population cells; the side population is enriched for stem/progenitor cells), through a BD FACSAria™ cell sorter. Subsequently, the isolated SP cells were used in a Mammosphere Formation Assay. SP cells of MCF-7 and BT-474 formed more mammospheres than non-SP cells (see FIG. 4A).
Next, the effects of the compound KSA-101696 in SP cells under normal culture conditions was evaluated.

[2] = test system: ALDH-positive SKBR3 cells; assay: Aldefluor assay (ALDH-positive cells); format: cell-based
Procedure: SKBr3 cells with or without treatment harvested, washed and incubated in aldefluor assay buffer containing an ALDH substrate (BAAA). For negative control, half of the cells of each sample was removed to another FACS tube and incubated under identical condition with DEAB (diethylaminobenzaldehyde), a specific inhibitor of ALDH enzyme.
Because SKBR3 cells include, among various cell lines tested, a particularly high percentage of ALDH-positive cells, SKBR3 cells were selected to evaluate whether KSA-101696 inhibits ALDH-positive cells in vitro.
After two days of treatment with 2.5 μM of KSA-101696, a more that 50% reduction in ALDH-positive cell percentage was observed (FIG. 5A).

T47D = assay: Annexin V binding by flow cytometry (apoptosis); format: cell-based; details: high Numb expression, FIG. 9B
Procedure: (§1) It is known that loss of phospholipid asymmetry of the plasma membrane is an early event of apoptosis. The annexin V binds to negatively charged phospholipids, like phosphatidylserine. During apoptosis, the cells react to annexin V once chromatin condenses but before the plasma membrane loses its ability to exclude propidium iodide (PI).
(§2) Annexin-V staining was performed by using Vybrant Apoptosis Assay Kit #2 (Molecular Probes) following the manufacturer's recommendations. Annexin-V stained cells were analyzed by flow cytometry, measuring the fluorescence emission between 515 nm to 545 nm.
This experiment was carried out with three breast cancer cell lines: MDA-MB-468, SKBR-3 and T47D. The MDA-MB-468 cell line represents the basal like breast cancer (which is a breast cancer subtype with a more aggressive clinical behavior). The SKBR-3 cell line represents Her-2 overexpressing breast cancer. […] The T47D cell line represents ER/PR positive breast cancer. Unlike MDA-MB-468 cells or SKBR-3 cells, T47D cells are highly differentiated cells and respond very well to hormonal therapy and chemotherapy.
In a next step, it was investigated whether there was a correlation between Numb protein expression and sensitivity of a cell line to the apoptotic effects of KSA-101696. Apoptotic cells were determined by Annexin-V staining as described in Example 1.

[3] = test system: THP-1 acute monocytic leukemia cells; assay: CD34 positive cell population by flow cytometry; format: cell-based; details: 48 h
Procedure: THP-1 leukemic cells were cultured in RPMI medium in […] flask and treated with KSA-101696 for 48 h. Cells were then washed and stained with anti-CD34-FITC (BD biosciences) for 30 min at room temperature. The hematopoietic stem cell population (CD34 positive cells) was analyzed by flow cytometry to evaluate the effect of KAS-101696 on hematopoietic stem cells of leukemic origin.

[4] = test system: normal cells MCF-10 A, HSFN1 (human foreskin cells) and BM4 (bone marrow derived mesenchymal stem cells); assay: Annexin V binding by flow cytometry (apoptosis) in normal cells; format: cell-based; details: 20 μM, 48 h
Procedure: as §1, §2
To evaluate the selective-apoptotic effect of the compound in cancer cells but not normal cells, the cancer cell lines SKBR3, MDA-MB-468, and normal cells MCF-10 A, HSFN1 (human foreskin cells) and BM4 (bone marrow derived mesenchymal stem cells) were used. […] Upon treatment of cells with 20 μM for 48 h, cells were stained with Annexin-V and PI and binding of Annexin-V and PI to the cells was determined by flow cytometry.

MDA-MB-468 tumors = assay: Antitumor activity in mice; format: in vivo, Nude mice
Procedure: Nude mice (Jackson Laboratories, Bar Harbor, Me., USA) were injected with 4×10^6 cells of MDA-MB-468 in the mammary pad and tumor size was measured weekly using a caliper. When the tumor reached approximately 100 mm^3 diameter the mice were divided into a control group and a group treated with KSA-101696 200 mg/kg via intraperitoneal injection (three cycles every four days). Apparent toxicity as determined by body weight loss is recorded by measuring total body weight. Breeding, care and sacrifice of the animals were carried out in accordance with the protocols approved by the Animal Care and Use Committee of the King Faisal Specialist Hospital and Research Centre.
Because of the observed selective cytotoxic effect of compound KSA-101696 against cancer cells and the tolerance of normal cells and normal stem cells in vitro, a high dose of compound KSA-101696 (200 mg/kg) was used on mice.

COc1ccc(-c2csc3nc4ccccc4n23)cc1 [KSA-101696, 3-(4-methoxyphenyl)benzo[4,5]imidazo[2,1-b]thiazole]
induced apoptosis in cancer stem cells compared to differentiated breast cancer cells [1]: two-fold increase
IC50 (SP cells of MCF-7 cells): ~0.3 µM
reduction in ALDH-positive cell percentage ([2]; 2.5 μM, two days): > 50%
IC50 ([2]; Homo sapiens, SK-BR-3): ~2 µM
apoptosis (Annexin-V) in relation to Numb expression (T47D): did not have such effects
CD34+ cells percentage [3]: reduction of CD34^+ cells percentage
apoptosis (Annexin-V and PI) in normal cells [4]: little apoptotic effect
reduction (shrinking) of tumor volume (MDA-MB-468 tumors; 200 mg/kg intraperitoneal, three doses, mice bearing MDA-MB-468 tumors): 70%
ED50 (MDA-MB-468 tumors; Mus musculus, MDA-MB-468, ip, intraperitoneal, read-out: ED50 (dose that shrinks the tumor volume by 50% at the end of treatment)): 50 mg/kg
